Measured values taken from article PMC10447267, “Assessment of the potential of the MET inhibitor tepotinib to affect the pharmacokinetics of CYP3A4 and P-gp substrates” (Investigational New Drugs, 2023).
pIC50, pKi: −log10 of the molar value. Like-named read-outs stand apart in the source and are kept apart here.

Legend:
[1] = substance not given, taken as tepotinib; ref the healthcare business of Merck KGaA, Darmstadt, Germany, data on file; cited from earlier work
[2] = human mass balance study; cited from earlier work
CYP1A1/2 = CYP1A1/2 activity induction in primary human hepatocyte cultures; assay type: in vitro ADME; details: enzyme activity quantification
Method: In vitro studies in primary human hepatocyte cultures were conducted to assess the potential of tepotinib to induce human CYP1A1/2, 2B6 and 3A4/5 activity, the latter based on testosterone 6β-hydroxylation reactions (Online Resource 2). […] The studies included positive (rifampin) and vehicle (DMSO) controls. A negative control (flumazenil) was also included in the mRNA studies. The study designs, test systems and selection of prototypical inducers used in these studies were consistent with PhRMA, FDA and EMA guidelines.

CYP3A4/5 = CYP3A4/5 inhibition in pooled human liver microsomes; assay type: in vitro ADME; details: for inhibition at 49.5 µM / pIC50: human, microsomes
Method: The potential of tepotinib and MSC2571109A to inhibit CYP450 enzymes CYP1A2, 2A6, 2B6, 2C8, 2C9, 2C19, 2D6, 2E1, and 3A4/5 in vitro was evaluated using CYP-catalyzed reactions in pooled mixed-gender human liver microsomes using specific substrates and liquid chromatography/tandem mass spectrometry (LC–MS/MS) readouts. […] […] Assessments of mechanism-based inhibition of the above listed CYP450 enzymes were conducted after pre-incubation of the microsomes with tepotinib or MSC2571109A. A brief summary of the incubation methods, including details of substrates used for the other CYP enzymes (which are not pertinent to this article) are presented in Online Resource 1. The LC–MS/MS-based methods used were consistent with those previously described in the literature.

**Q.** Which “Geometric mean free Cmax” value [1] does the source give for `CN1CCC(COc2cnc(-c3cccc(Cn4nc(-c5cccc(C#N)c5)ccc4=O)c3)nc2)CC1` [tepotinib] here?
**A.** Its value is 52.4 nM.

**Q.** And the “Share of total circulating radioactivity in plasma” value [2]?
**A.** The value was 55%.

**Q.** And the “Induction of CYP1A1/2 activity” value (CYP1A1/2)?
**A.** The value was “less than 40 % of positive control”.

**Q.** And the “Potential for time-dependent inhibition” value (CYP3A4/5; Midazolam 6β-hydroxylation)?
**A.** Its value is “Little or No”.

**Q.** And the “Potential for time-dependent inhibition” value (CYP3A4/5; Nifedipine oxidation)?
**A.** Its value is “Little or No”.

**Q.** And the “Potential for time-dependent inhibition” value (CYP3A4/5; Testosterone 1’-hydroxylation)?
**A.** Its value is “Little or No”.

**Q.** What about the inhibition at 49.5 µM (CYP3A4/5; both sexes, Midazolam 6β-hydroxylation, 30-min preincubation, read-out: Time-dependent inhibition, maximum inhibition at 49.5 µM) of the same compound?
**A.** The inhibition at 49.5 µM was 60%.

**Q.** And the pIC50 (CYP3A4/5; both sexes, Midazolam 6β-hydroxylation, 30-min preincubation, read-out: Time-dependent inhibition IC50)?
**A.** Its pIC50 is 4.48.

**Q.** What about the inhibition at 49.5 µM (CYP3A4/5; both sexes, Midazolam 6β-hydroxylation, zero-minute preincubation, read-out: Direct inhibition, maximum inhibition at 49.5 µM) of the same compound?
**A.** The inhibition at 49.5 µM was 66%.

**Q.** And the inhibition at 49.5 µM (CYP3A4/5; both sexes, Nifedipine oxidation, 30-min preincubation, read-out: Time-dependent inhibition, maximum inhibition at 49.5 µM)?
**A.** The inhibition at 49.5 µM was 71%.

**Q.** And the pIC50 (CYP3A4/5; both sexes, Nifedipine oxidation, 30-min preincubation, read-out: Time-dependent inhibition IC50)?
**A.** The pIC50 was 4.60.

**Q.** And the inhibition at 49.5 µM (CYP3A4/5; both sexes, Nifedipine oxidation, zero-minute preincubation, read-out: Direct inhibition, maximum inhibition at 49.5 µM)?
**A.** The inhibition at 49.5 µM was 64%.

**Q.** And the inhibition at 49.5 µM (CYP3A4/5; both sexes, Testosterone 1’-hydroxylation, 30-min preincubation, read-out: Time-dependent inhibition, maximum inhibition at 49.5 µM)?
**A.** Its inhibition at 49.5 µM is 59%.

**Q.** What about the pIC50 (CYP3A4/5; both sexes, Testosterone 1’-hydroxylation, 30-min preincubation, read-out: Time-dependent inhibition IC50) of the same compound?
**A.** The pIC50 was 4.43.

**Q.** And the inhibition at 49.5 µM (CYP3A4/5; both sexes, Testosterone 1’-hydroxylation, zero-minute preincubation, read-out: Direct inhibition, maximum inhibition at 49.5 µM)?
**A.** The inhibition at 49.5 µM was 62%.

**Q.** What about the pIC50 (CYP3A4/5; both sexes, human liver microsomes, Midazolam 6β-hydroxylation, zero-minute preincubation, read-out: Direct inhibition IC50) of the same compound?
**A.** Its pIC50 is 4.60.

**Q.** And the pIC50 (CYP3A4/5; both sexes, human liver microsomes, Nifedipine oxidation, zero-minute preincubation, read-out: Direct inhibition IC50)?
**A.** The pIC50 was 4.59.

**Q.** What about the pIC50 (CYP3A4/5; both sexes, human liver microsomes, Testosterone 1’-hydroxylation, zero-minute preincubation, read-out: Direct inhibition IC50) of the same compound?
**A.** Its pIC50 is 4.51.

**Q.** And the pIC50 (CYP3A4/5; both sexes, in vitro, abstract summary, read-out: IC50, direct or time-dependent CYP3A4/5 inhibition)?
**A.** The pIC50 was less than 4.82.

**Q.** And the pKi (CYP3A4/5; both sexes, human liver microsomes, read-out: Ki, CYP3A4/5-catalyzed probe substrate reactions)?
**A.** The pKi was no more than 4.96.

**Q.** What about the “Direct inhibition of CYP3A4/5 (in words)” value (CYP3A4/5; in vitro) of the same compound?
**A.** Its value is “weak direct inhibitors”.
